This is an account of results in patent publication US5646042A, “C-myb targeted ribozymes” (Ribozyme Pharmaceuticals, Inc., priority 1995, dated 1997).

In the experiment the test system is rat smooth muscle cells. The experiment can be described thus: Serum-stimulated rat smooth muscle cell proliferation (BrdU incorporation). The experiment is classed as cell-based. To be noted: for % cell proliferation: no ribozyme; for augmentation of ribozyme inhibition of smooth muscle cell proliferation: 0.2 μM ribozyme 575 12/12 complexed with DMRIE/DOPE at 1:1 charge ratio. On the procedure: The ribozymes that cleaved c-myb RNA described above were assayed for their effect on smooth muscle cell proliferation. Rat vascular smooth muscle cells were isolated and cultured as follows. Aortas from adult Sprague-Dawley rats were dissected, connective tissue was removed under a dissecting microscope, and 1 mm^2 pieces of the vessel were placed, intimal side up, in a Petri dish in Modified Eagle's Medium (MEM) with the following additives: 10% FBS, 2% tryptose phosphate broth, 1% penicillin/streptomycin and 2 mM L-Glutamine. The smooth muscle cells were allowed to migrate and grow to confluence over a 3-4 week period. These primary cells were frozen and subsequent passages were grown at 37° C. in 5% CO2 in Dulbecco's modified Eagle's medium (DMEM), 10% fetal bovine serum (FBS), and the following additives: 2 mM L-Glutamine, 1% penicillin/streptomycin, 1 mM sodium pyruvate, non-essential amino acids (0.1 mM of each amino acid), and 20 mM Hepes pH 7.4. Cells passed four to six times were used in proliferation assays. For the cell proliferation assays, 24-well tissue culture plates were prepared by coating the wells with 0.2% gelatin and washing once with phosphate-buffered saline (PBS). RASMC were inoculated at 1×10^4 cells per well in 1 ml of DMEM plus 10% FBS and additives and incubated for 24 hours. The cells were subconfluent when plated at this density. The cells were serum-starved by removing the medium, washing once with PBS, and incubating 48-72 hours in DMEM containing 0.5% FBS plus additives.
Serum-starved smooth muscle cells were washed twice with PBS, and the RNA/lipid complex was added. The plates were incubated for 4 hours at 37° C. The medium was then removed and DMEM containing 10% FBS, additives and 10 μM bromodeoxyuridine (BrdU) was added. In some wells, FBS was omitted to determine the baseline of unstimulated proliferation. The plates were incubated at 37° C. for 20-24 hours, fixed with 0.3% H2 O2 in 100% methanol, and stained for BrdU incorporation by standard methods. In this procedure, cells that have proliferated and incorporated BrdU stain brown; non-proliferating cells are counter-staineda light purple. Both BrdU positive and BrdU negative cells were counted under the microscope. 300-600 total cells per well were counted. In the following experiments, the percentage of the total cells that have incorporated BrdU (% cell proliferation) is presented. […] Percent inhibition then is calculated from the % cell proliferation values as follows: % inhibition=100-100((Ribozyme-0% serum)/(Control-0% serum)).
These include, but are not limited to, ammonium chloride, carbonyl cyanide p-trifluoromethoxy phenyl hydrazone (FCCP), chloroquine, monensin, colchicine, and viral particles (Cotten, M. et al., 1990, Proc. Natl. Acad. Sci. USA, 87, 4033-4037; Cotten, M. et al., 1993, J. Virol., 67, 3777-3785; Cotten, M. et al., 1992, Proc. Natl. Acad. Sci USA, 89, 6094-6098; Cristiano, R. J. et al., 1993, Proc. Natl. Acad. Sci. U S A, 90, 2122-6; Cudel, D. T. et al., 1991, Proc. Nat. Acad. Sci., USA, 88, 8850-8854; Ege, T. et al., 1984, Exp. Cell Res., 155, 9-16; Harris, C. E. et al., 1993, Am. J. Respir. Cell Mol. Biol., 9, 441-7; Seth, P. et al., 1994, J. Virol., 68, 933-40; Zenke, M. et al., 1990, Proc. Natl. Acad. Sci. USA, 87, 3655-3659). […] To determine whether such agents may augment the functional delivery of RNA and ribozymes to smooth muscle cells, the effects of chloroquine on ribozyme inhibition of smooth muscle cell proliferation were assessed. […]
(Incorporation of labelled thymidine or its analogues reports DNA synthesis.)

The structures appear in SMILES notation.

In the case of `CCN(CC)CCCC(C)Nc1ccnc2cc(Cl)ccc12` (centres unmarked) [chloroquine], the “% cell proliferation” value is, setting by setting: (10 μM chloroquine added upon stimulation, stimulation with 10% serum) 80.5±1.5%; (10 μM chloroquine, unstimulated cells) 7±0.5%. The “augmentation of ribozyme inhibition of smooth muscle cell proliferation” value is, setting by setting: (10 μM chloroquine) “two- to three-fold”; (10 μM chloroquine, listed as Chloroquine) 2- to 3 fold. For the same molecule, the “effect of chloroquine on untreated cells (proliferation)” value (10 μM chloroquine, cells without ribozyme) is reported as “no effect”.
